Assay results: patent publication US11541152B2, “Medical device with drug-eluting coating on modified device surface” (Lutonix, Inc., priority 2018, dated 2023)
Each block holds one compound with its values, some of them ahead of it.

Legend:
[1] = octanol/water; cited from earlier work
[2] = test system: protein (albumin); conditions: cited from earlier work
[3] = cited from earlier work
[4] = stability under ethylene oxide sterilization, heating and aging; reaction with paclitaxel; conditions: for reaction with paclitaxel: ethylene oxide sterilization, heating, aging
[5] = BSA added; cited from earlier work

Compound: PEG-20 sorbitan monolaurate [Tween 20]
log P [1]: about 3.0

Compound: CO[C@H]1C[C@@H]2CC[C@@H](C)[C@@](O)(O2)C(=O)C(=O)N2CCCC[C@H]2C(=O)O[C@H]([C@H](C)C[C@@H]2CC[C@@H](O)[C@H](OC)C2)CC(=O)[C@H](C)/C=C(\C)[C@@H](O)[C@@H](OC)C(=O)[C@H](C)C[C@H](C)/C=C/C=C/C=C/1C [rapamycin]
protein bound [2]: 92% | share of protein binding that is to albumin ([2]; primarily to albumin): 97%

Compound: Sudan Red
solubility in aqueous solvent [3]: insoluble in aqueous solvent

Compound: O=C(O)c1ccccc1 [benzoic acid]
reaction with paclitaxel [4]: reacted with paclitaxel | stability under ethylene oxide sterilization, heating, and aging process ([4]; formulated with paclitaxel): not stable

Compound: CC(=O)O[C@H]1C(=O)[C@@]2(C)[C@H]([C@H](OC(=O)c3ccccc3)[C@]3(O)C[C@H](OC(=O)[C@H](O)[C@@H](NC(=O)c4ccccc4)c4ccccc4)C(C)=C1C3(C)C)[C@]1(OC(C)=O)CO[C@@H]1C[C@@H]2O [paclitaxel]
increase of solubility in PBS with the addition of BSA [5]: over 20 fold

reaction with paclitaxel [4]: reacted with paclitaxel
Compound: OCCNCCO [diethanolamine]

Compound: COc1ccc(O)c(C(C)(C)C)c1 [Butylated hydroxyanisole]
log P [1]: 1.31

reaction with paclitaxel [4]: reacted with paclitaxel
Compound: O=C1O[C@H]([C@@H](O)CO)C(O)=C1O [ascorbic acid]
